Here are results for four compounds from US8420884B2, “Models of malignant brain cancer, and therapeutic siRNAs against oncogenic signaling pathways, and methods and kits for uses therefor” (Tufts Medical Center Inc., priority 2008, dated 2013).

Test [1] deals with GBM culture 2227. In words: Cytotoxicity of NXD30001 and 17-AAG in GBM cultures. Format: cell-based, mouse. Particulars: GBM 2227; mean of three independent experiments ± standard deviation. As for the experimental part: (§1) Primary cultures of tumors or newborn mice astrocytes were established as follows: tumors or P0 neonate cortices were excised and minced in 0.25% trypsin (wt/vol) 1 mM EDTA and allowed to disaggregate for 15 min at 37° C. The resulting cell suspension was then strained through a 70-μm cell strainer (Falcon). The single suspension of cells was washed in PBS twice and plated on 0.2% gelatin-coated tissue culture plates. Cells were fed every 24 hr with fresh medium that consisted of DMEM supplemented with 10% heat-inactivated FBS and antibiotics. The primary cultures of astrocytes were routinely stained for markers of astrocytic lineages by immunofluorescence.
(§2) Cytotoxicity of NXD30001 was assessed in GMB cell proliferating cultures obtained from clinical mouse subjects and was compared to that of 17-(Allylamino)-17-demethoxygeldanamycin (17-AAG), an ansamycin antibiotic which binds to HSP90. Data obtained was analyzed as half maximum inhibitory concentration (1050) values (Table 3).

Test [2] concerns GBM-2 cells. The test is described as above. The format is cell-based, mouse. The note with it: mean of three independent experiments ± standard deviation. As for the experimental part:
as §1, §2

Test [3] deals with GBM culture 102. The description is as above. The format is cell-based, mouse. The note with it: GBM 102; mean of three independent experiments ± standard deviation. Here is the method:
as §1, §2

Test [4] has as its system GBM culture 46. The description is as above. Format: cell-based, mouse. Particulars: GBM 46; mean of three independent experiments ± standard deviation. As for the experimental part: as §1, §2
The test system of test [5] is GBM culture 103. Described as above. The format is cell-based, mouse. Particulars: GBM 103; mean of three independent experiments ± standard deviation. As for the experimental part:
as §1, §2

Test [6] deals with GBM culture 42. Described as above. The format is cell-based, mouse. Particulars: GBM 42; mean of three independent experiments ± standard deviation. Here is the method:
as §1, §2

The test system of test [7] is GBM-1 cells. Described as above. Format: cell-based, mouse. The note with it: mean of three independent experiments ± standard deviation. Here is the method:
as §1, §2

The subject of test [8] is GBM culture 2734. The test is described as above. Format: cell-based, mouse. The note with it: GBM 2734; mean of three independent experiments ± standard deviation. Here is the method:
as §1, §2

The test system of test [9] is GBM culture 2415. Described as above. Format: cell-based, mouse. Particulars: GBM 2415; mean of three independent experiments ± standard deviation. As for the experimental part:
as §1, §2

The subject of test [10] is GBM culture 69. The description is as above. The format is cell-based, mouse. The note with it: GBM 69; mean of three independent experiments ± standard deviation. Here is the method: as §1, §2
Test [11] deals with GBM culture 2414. The description is as above. Particulars: GBM 2414; mean of three independent experiments ± standard deviation. Format: cell-based, mouse. Here is the method: as §1, §2
For test [12], the system named is GBM culture 2231. Described as above. The format is cell-based, mouse. The note with it: GBM 2231; mean of three independent experiments ± standard deviation. Here is the method: as §1, §2
Test [13] deals with GBM culture 2000. Described as above. The note with it: GBM 2000; mean of three independent experiments ± standard deviation. Format: cell-based, mouse. Here is the method:
as §1, §2

Test [14] deals with GBM culture 41. The description is as above. Particulars: GBM 41; mean of three independent experiments ± standard deviation. Format: cell-based, mouse. As for the experimental part: as §1, §2
The test system of test [15] is recurrent and newly diagnosed GBMs. Particulars: unselected patients; phase II; cited from earlier work.
Test [16] deals with GBM tumors in conditional EGFR animals. Particulars: animal number 2148; 80 days. As for the experimental part: Bioluminescence was measured noninvasively using the IVIS 200 imaging system (Xenogen). For live imaging, the surface areas of focus for imaging were depilated using commercial depilatory creams. Images were taken 10 min after IP injection of luciferin (225 mg/kg, Xenogen) to allow sufficient time for distribution of luciferin, with a 60 second photon acquisition during which mice were sedated via continuous inhalation of 3% isoflurane. For organ imaging post luciferin injection, animals were incubated for 10 min and perfused transcardially with saline. Bioluminescence imaging was then performed on individually dissected organs. Signal intensity was quantified for defined regions of interest as photon count rate per unit body area per unit solid angle subtended by the detector (units of photons/s/cm^2/steradian). All image analyses and bioluminescent quantification were performed using Living Image software v. 2.50 (Xenogen).
Conditional EGFR animals were examined using bioluminescence imaging at different periods of time after tumor induction with Ad-Cre-recombinase by the methods above.

Test [17] has as its system GBMs. The note with it: GBM patients; cited from earlier work.

Entries after “also recorded” stand apart in the source; their conditions may differ.

`C=CCNC1=C2C[C@@H](C)C[C@H](OC)[C@H](O)[C@@H](C)/C=C(\C)[C@H](OC(N)=O)[C@@H](OC)/C=C\C=C(/C)C(=O)NC(=CC1=O)C2=O` [17-AAG, 17-(Allylamino)-17-demethoxygeldanamycin]: the half-inhibitory concentration (IC50) was 0.712 µM in test [1]; 1.1 ± 0.119 µM in test [2]; 0.6262 ± 0.006 µM in test [3]; 0.0919 ± 0.0014 µM in [4]; 0.793 ± 0.0287 µM in test [5]; 0.166 ± 0.0249 µM in [6]. For the same compound, the concentration for half-maximal inhibition (IC50) turned out to be 0.208 ± 0.0096 µM in test [7]; 0.381 µM in [8]; 0.329 ± 0.0501 µM in [9]; 0.091 µM in [10]; 0.205 ± 0.0131 µM in test [11]; 0.737 ± 0.072 µM in [12]. The 50% inhibitory concentration (IC50) in test [13] was 0.345 ± 0.0755 µM; in test [14], 0.1 ± 0.005 µM.
Regarding `C#Cc1cccc(Nc2ncnc3cc(OCCOC)c(OCCOC)cc23)c1` [Tarceva, erlotinib], in [15], the overall efficacy result is reported as “minimal when compared with historical data”. Also, in test [16], the “outcome by bioluminescence imaging” value is “essentially cured by treatment; also recorded: essentially been cured of cancer”.
Turning to `COc1cc2ncnc(Nc3ccc(F)c(Cl)c3)c2cc1OCCCN1CCOCC1` [gefitinib], the overall efficacy result in test [15] is “minimal when compared with historical data”.
As for `CO[C@H]1C[C@@H]2CC[C@@H](C)[C@@](O)(O2)C(=O)C(=O)N2CCCC[C@H]2C(=O)O[C@H]([C@H](C)C[C@@H]2CC[C@@H](OC(=O)C(C)(CO)CO)[C@H](OC)C2)CC(=O)[C@H](C)/C=C(\C)[C@@H](O)[C@@H](OC)C(=O)[C@H](C)C[C@H](C)/C=C/C=C/C=C/1C` [temsirolimus], the “Phase II results of two clinical trials” value in test [17] is “negative, with no improvement in response rates, progression-free survival or overall survival”.

Usually IC50 stands for the concentration at which inhibition is half-maximal. A low value points to greater potency.
